EP4591884A1, “LIPID COMPOUND FOR NUCLEIC ACID DELIVERY, AND RELATED USE AND MEDICAMENT COMPRISING SAME” (Beijing Baishihekang Pharmaceutical Technology (Bsjpharma) …, priority 2022, dated 2024)

Experiments:
Assay in all cases: in vitro small nucleic acid delivery by lipid-nucleic acid mixture, cell uptake by flow cytometry
Format in all cases: cell-based, human
Settings in all cases: lipid 1.25 ug/mL, fluorescently labeled PGY-ssRNA-26, final 100 nM, 9 h incubation, flow cytometry fluorescence
HPAC cells = system: HPAC cells
Protocol: (§1) Culture the human pancreatic acinar epithelial cancer cell line HPAC, human large cell lung cancer cell line H460, and human embryonic kidney cell line HEK293T (purchased from the Cell Resource Center, Institute of Basic Medicine, Chinese Academy of Medical Sciences) used in the experiments in a 37°C, 5%CO2 incubator. Culture the HPAC cells in DMEM/F12 medium, the H460 cells in RPMI-1640 medium, and the 293T cells in DMEM medium containing 10% fetal bovine serum and 1% antibiotics (penicillin 100 U/mL & streptomycin […]). Culture the cells to the logarithmic growth phase with a cell density of 6 × 10^5/1 mL medium/well; divide the cells into 12-well plates (1 mL medium/well), and incubate at 37°C overnight (12 h), and then conduct subsequent experiments.
(§2) Add 5 µL of nucleic acid and 95 µL of DEPC-treated water to a 2 mL glass tube, mix homogeneously, add a certain amount of lipid monomer, mix thoroughly, heat in a 90°C water bath for 15 min, and then cool naturally to obtain a mixture of nucleic acid and lipid.
(§3) 3. Detection of cell uptake of nucleic acids delivered by lipids inside cells by means of flow cytometry (CFlow) • 1) Main experimental instruments and equipment: 10 cm cell culture dishes, 12-well cell culture plates, pipettes, transfer tubes, optical microscope, flow cytometer CytoFLEX instrument (purchased from Beckman, USA) • 2) Main experimental reagents: Model establishment and transfection: artificially synthesized lipid monomers and nucleic acids as shown in the table • 3) Culture the human pancreatic acinar epithelial cancer cell line HPAC cells, human large cell lung cancer cell line H460 cells, and human embryonic kidney cell line HEK293T cells used in the experiment to the logarithmic growth phase, and then divide them into 12-well plates at a cell density of 6×10^5/mL culture medium/well; incubate the 12-well plates at 37°C overnight (12 h), and then conduct subsequent experiments. • 4) The experimental groups are as follows: • a) Blank group: refers to untreated cells, and this group serves as a blank control group. • b) Free uptake group: directly add 5 µL of fluorescently labeled nucleic acid solution (stock concentration 20 µM), and this group serves as the negative control group. • c) Lipid-nucleic acid mixture treatment group: add the mixture of lipids and fluorescently labeled nucleic acids prepared in step 2 to the cells, and mix homogeneously. The final concentration of nucleic acids is 100 nM. • 5) After incubating with cells for 9 h, wash the cells three times with PBS, resuspend the cells with PBS (self-prepared), and use a flow cytometer CytoFLEX instrument (purchased from Beckman, USA) to detect the fluorescence intensity of the cells in the sample wells.

H460 cells = system: H460 cells
Protocol: as §1, §2, §3

293T cells = system: 293T cells
Protocol: as §1, §2, §3

Structure (SMILES)	Lipid delivery group (1.25 ug/mL) (HPAC cells) [%]	Lipid delivery group (1.25 ug/mL) (H460 cells) [%]	Lipid delivery group (1.25 ug/mL) (293T cells) [%]
CCCCCCCCCCCCCCCCCCCCCCCC[C@@H](O)[C@@H](N)CO [Sphingosine (d27:0), (2S,3R)-2-aminoheptacosane-1,3-diol]	97.35	97.57	91.06
CCCCCCCCCCCCCCCCCCCCC/C=C/[C@@H](O)[C@@H](N)CO [Sphingosine (d26:1), (2S,3R,E)-2-aminohexacos-4-ene-1,3-diol]	96.03	85.87	87.97
CCCCCCCCCCCCCCCCCCCCCCCCCCCCC/C=C/[C@@H](O)[C@@H](N)CO [Sphingosine (d34:1), (2S,3R,E)-2-aminotetratriacont-4-ene-1,3-diol]	2.95	66.64	38.31
CCCCCCCCCCCCCCCCCCCCCCCCCCCC[C@@H](O)[C@@H](N)CO [Sphingosine (d31:0), (2S,3R)-2-aminohentriacontane-1,3-diol]	70.5	68.16	97.4
CCCCCCCCCCCCCCCCCCCCCCCCCCCCCCCC[C@@H](O)[C@@H](N)CO [Sphingosine (d35:0), (2S,3R)-2-aminopentatriacontane-1,3-diol]	51.46	69.95	43.03
CCCCCCCCCCCCCCCCCCCCCCCCCCCCCC/C=C/[C@@H](O)[C@@H](N)CO [Sphingosine (d35:1), (2S,3R,E)-2-aminopentatriacont-4-ene-1,3-diol]	53.75	64.66	50.79
CCCCCCCCCCCCCCCCCCCCCC/C=C/[C@@H](O)[C@@H](N)CO [Sphingosine (d27:1), (2S,3R,E)-2-aminoheptacos-4-ene-1,3-diol]	99.42	95.74	92.77
CCCCCCCCCCCCCCCCCC/C=C/[C@@H](O)[C@@H](N)CO [Sphingosine (d23:1), (2S,3R,E)-2-aminotricos-4-ene-1,3-diol]	7.93	44.11	34.51
CCCCCCCCCCCCCCCCCCCCCC[C@@H](O)[C@@H](N)CO [Sphingosine (d25:0), (2S,3R)-2-aminopentacosane-1,3-diol]	96.17	99.26	97.76
CCCCCCCCCCCCCCCCCCCCCCCCCCCCCCC[C@@H](O)[C@@H](N)CO [Sphingosine (d34:0), (2S,3R)-2-aminotetratriacontane-1,3-diol]	0.55	24.56	5
CCCCCCCCCCCCCCCCCCCCCCCCCCCCCCCCC[C@@H](O)[C@@H](N)CO [Sphingosine (d36:0), (2S,3R)-2-aminohexatriacontane-1,3-diol]	58.22	62.71	40.66
CCCCCCCCCCCCCCCCCCCCCCCCCC/C=C/[C@@H](O)[C@@H](N)CO [Sphingosine (d31:1), (2S,3R,E)-2-aminohentriacont-4-ene-1,3-diol]	60.61	82.66	75.77
CCCCCCCCCCCCCCCCCCCCCCCCCCCCCCC/C=C/[C@@H](O)[C@@H](N)CO [Sphingosine (d36:1), (2S,3R,E)-2-aminohexatriacont-4-ene-1,3-diol]	48.77	48.37	25.23
CCCCCCCCCCCCCCCCCCCCCCCCCCC[C@@H](O)[C@@H](N)CO [Sphingosine (d30:0), (2S,3R)-2-aminotriacontane-1,3-diol]	93.63	78.84	83.38
CCCCCCCCCCCCCCCCCCCCCCCCCCCC/C=C/[C@@H](O)[C@@H](N)CO [Sphingosine (d33:1), (2S,3R,E)-2-aminotritriacont-4-ene-1,3-diol]	45.88	67.01	40.07
CCCCCCCCCCCCCCCCCCCCCCCCCCC/C=C/[C@@H](O)[C@@H](N)CO [Sphingosine (d32:1), (2S,3R,E)-2-aminodotriacont-4-ene-1,3-diol]	87.38	62.18	86.77
CCCCCCCCCCCCCCCCCCCCCCCCCCCCC[C@@H](O)[C@@H](N)CO [Sphingosine (d32:0), (2S,3R)-2-aminodotriacontane-1,3-diol]	70.16	46.19	34.02
CCCCCCCCCCCCCCCCCCCCCCCC/C=C/[C@@H](O)[C@@H](N)CO [Sphingosine (d29:1), (2S,3R,E)-2-aminononacos-4-ene-1,3-diol]	23.36	62.37	32.74
CCCCCCCCCCCCCCCCCCCCCCC/C=C/[C@@H](O)[C@@H](N)CO [Sphingosine (d28:1), (2S,3R,E)-2-aminooctacos-4-ene-1,3-diol]	96.66	84.15	86.5
CCCCCCCCCCCCCCCCCCCCCCCCC[C@@H](O)[C@@H](N)CO [Sphingosine (d28:0), (2S,3R)-2-aminooctacosane-1,3-diol]	94.40	98.52	96.93
CCCCCCCCCCCCCCCCCCCC/C=C/[C@@H](O)[C@@H](N)CO [Sphingosine (d25:1), (2S,3R,E)-2-aminopentacos-4-ene-1,3-diol]	89.70	78.43	78.12
CCCCCCCCCCCCCCCCCCCCCCCCC/C=C/[C@@H](O)[C@@H](N)CO [Sphingosine (d30:1), (2S,3R,E)-2-aminotriacont-4-ene-1,3-diol]	69.34	54.83	95.79
CCCCCCCCCCCCCCCCCCCC[C@@H](O)[C@@H](N)CO [Sphingosine (d23:0), (2S,3R)-2-aminotricosane-1,3-diol]	78.91	98.65	98.16
CCCCCCCCCCCCCCCCCCCCCCC[C@@H](O)[C@@H](N)CO [Sphingosine (d26:0), (2S,3R)-2-aminohexacosane-1,3-diol]	97.75	95.2	95.55
CCCCCCCCCCCCCCCCCCC[C@@H](O)[C@@H](N)CO [Sphingosine (d22:0), (2S,3R)-2-aminodocosane-1,3-diol]	39.08	24.32	22.99
CCCCCCCCCCCCCCCCCCCCCCCCCCCCCC[C@@H](O)[C@@H](N)CO [Sphingosine (d33:0), (2S,3R)-2-aminotritriacontane-1,3-diol]	2.48	72.21	61.39
CCCCCCCCCCCCCCCCCCC/C=C/[C@@H](O)[C@@H](N)CO [Sphingosine (d24:1), (2S,3R,E)-2-aminotetracos-4-ene-1,3-diol]	16.65	79.66	63.97
CCCCCCCCCCCCCCCCCCCCC[C@@H](O)[C@@H](N)CO [Sphingosine (d24:0), (2S,3R)-2-aminotetracosane-1,3-diol]	96.61	98.13	96.77
CCCCCCCCCCCCCCCCCCCCCCCCCC[C@@H](O)[C@@H](N)CO [Sphingosine (d29:0), (2S,3R)-2-aminononacosane-1,3-diol]	83.57	65.81	72.18
